The values that follow come from US20240287063A1, “METHIONINE ADENOSYLTRANSFERASE 2A INHIBITOR” (NANJING CHIA TAI TIANQING PHARMACEUTICAL CO., LTD., priority 2021, published 2024).

Structures are written as SMILES. A value given as a limit tells only on which side of the number the result lay.

The target in one assay is T1, MAT2A enzyme (Homo sapiens, UniProt P31153).
T1 construct: purchased BPS 71401
As to the kind of experiment: Enzymatic testing method for MAT2A (Biomol Green, OD620). In kind it is biochemical. The conditions noted are these: score by IC50 for inhibiting MAT2A; read-out: MAT2A inhibition score. As for the experimental part: • a) A 5×MAT2A test buffer (250 mM Tris-HCl, pH 8.0; 250 mM KCl; 75 mM MgCl2; 0.025% BSA; 0.05% Brij35; 1.5 mM EDTA) was first prepared and partially diluted to 1× for later use; • b) Preparation and addition of MAT2A enzyme (BPS, 71401): the MAT2A enzyme was prepared into 3.674 ng/L by using the 1×MAT2A test buffer (1.67×, final concentration 2.20 ng/L), a BioTek (MultiFlo FX) automatic liquid separator was used, 15 μL of 1.67×MAT2A enzyme solution was added to compound test wells and negative control wells respectively, and 15 μL of 1×MAT2A test buffer was added to blank control wells; • c) Preparation and addition of a compound: a compound to be tested was diluted with DMSO from 10 mM stock solution to 100 μM, a positive drug AGI-24512 was diluted under the same conditions, and the diluted compound and positive drug were automatically sprayed into each well by using a Tecan compound titrator (D300e) according to preset concentration gradients, where the spray volume was little and negligible. The concentration gradient was initially 1 μM, the dilution was implemented by ½ log, and a total of 8 gradients were set. Centrifugation at 2500 rpm for 30 s and incubation at 25° C. for 30 min were performed; • d) Preparation of ATP: 10 mM ATP (Sigma, A7699) was diluted with 1×MAT2A test buffer to 700 μM for later use; • e) Preparation and addition of a substrate and ATP mixture: 5×MAT2A test buffer, 3 μL/well; 750 μM L-methionine (Adamas, 01100469), 2.5 μL/well; 700 μM ATP, 2.5 μL/well; and double distilled water, 2 μL/well. A total amount of required mixture was prepared according to the number of test wells, and 10 μL of the mixture was added to each well by using the BioTek (MultiFlo FX) automatic liquid separator, followed by centrifugation at 2500 rpm for 30 s and reaction at 25° C. for 150 min; • f) Addition of Biomol Green detection reagent: 50 μL of Biomol Green (Enzo, BML-AK111) was added to each well by using the BioTek (MultiFlo FX) automatic liquid separator, followed by centrifugation at 2500 rpm for 30 s and incubation at 25° C. for 20 minutes; • g) After the reaction, OD620 values were read by using a Perkin Elmer (Envision 2105) multifunctional plate reader.
A formula for calculating an inhibition rate was as follows: […]
Wherein, • % Inhibition: inhibition rate % • ODsample: OD620 value in a sample well; • ODmin: representing a mean OD620 value of blank control wells without the enzyme or compound to be tested; • ODmax: representing a mean OD620 value of negative control wells with the enzyme and without the compound.
Then a dose-effect curve log(inhibitor) vs. response-Variable slope was fitted by usingGraphPad Prism 5 software to obtain an IC50 value of compound for MAT2A enzyme inhibition.

Assay [1] concerns HCT116 MTAP−/− subcutaneous xenograft tumors. The assay is described as follows: In vivo effect experiment of HCT116 MTAP−/− subcutaneous xenograft tumors in nude mice. The conditions noted are these: 50 mg/kg daily intragastric. As for the experimental part: Female Nu/Nu nude mice (6-8 weeks old, Beijing Vital River Laboratory Animal Technology Co., Ltd.) were raised in an SPF animal room at a temperature of 20° C.-25° C., relative humidity of 40%-70%, and light and dark lighting for 12 hours each; and animals can freely drink and eat. The animals were adaptively fed before experiment.
HCT116 MTAP^−/− cells (Horizon) were cultured in vitro for proliferation, cells in logarithmic growth phase were collected and resuspended in a serum-free RPMI-1640 medium, and the cell concentration was adjusted to 6.0×10^7 cells/mL; and 100 μL of the cell suspension was injected subcutaneously into the right anterior armpit of each nude mouse by using a 1 mL syringe, the status of the animals was observed regularly, and the growth of transplanted tumors was monitored regularly.
When the tumor volume reached 100-300 mm^3, animals with too large or too small tumor volume or uncertain tumor formation were eliminated, and tumor bearing mice with good health and similar tumor volume were selected and randomly grouped, 6 mice in each group; the administration group received daily intragastric administration (AG-270: 50 mg/kg, with a structure shown below; compound to be tested: 1-7.5 mg/kg); and the control group was intragastrically administrated with the same volume of blank solvent. In the administration period, the tumor diameter was measured twice a week, the tumor volume was calculated, the animals were weighed, and their weight was recorded.
A formula for calculating tumor volume (TV) is: Tv=½×a×b^2, wherein a represents long diameter of the tumor, and b represents short diameter of the tumor.
Experimental data is calculated and statistically processed by using Microsoft Office Excel 2007 software. Unless otherwise specified, the data were expressed as mean±standard error (Mean SEM), and t-test is used for comparison between two groups.
Growth curves of tumor volume in each group are shown in FIG. 1, results of SAM test in tumors of each group are shown in FIG. 2, and the mean tumor volume and SEM in each group are shown in Table 2 below: […]

T1 sequence (P31153 whole entry): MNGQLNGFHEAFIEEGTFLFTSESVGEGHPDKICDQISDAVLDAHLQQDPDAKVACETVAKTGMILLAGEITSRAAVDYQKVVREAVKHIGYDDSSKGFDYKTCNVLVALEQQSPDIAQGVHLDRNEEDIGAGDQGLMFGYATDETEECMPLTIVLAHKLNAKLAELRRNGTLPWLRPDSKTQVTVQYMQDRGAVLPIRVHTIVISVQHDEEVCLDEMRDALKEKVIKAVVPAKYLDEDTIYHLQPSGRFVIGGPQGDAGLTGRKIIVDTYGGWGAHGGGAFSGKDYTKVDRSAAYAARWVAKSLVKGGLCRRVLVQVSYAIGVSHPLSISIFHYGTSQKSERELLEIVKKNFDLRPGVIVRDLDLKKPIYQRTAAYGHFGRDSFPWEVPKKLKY

Take `Cn1nccc1-c1c2cc(-c3cn4ccc(C5CC5)cc4c(-c4ccc5nn(C)c(-c6ccnn6C)c5c4)c3=O)ccc2nn1C` [Example 8, 8-cyclopropyl-1,3-bis[2-methyl-3-(2-methylpyrazol-3-yl)indazol-5-yl]quinolizin-2-one]: on MAT2A enzyme, the IC50 was more than 1000 nM.
`COc1cc(-c2cn3ccc(C4CC4)nc3c(-c3ccc4c(c3)OC(F)(F)O4)c2=O)ccc1OC(F)F` [Example 34, 2-cyclopropyl-9-(2,2-difluoro-1,3-benzodioxol-5-yl)-7-[4-(difluoromethoxy)-3-methoxyphenyl]-8H-pyrido[1,2-a]pyrimidin-8-one]: on MAT2A enzyme, the IC50 is more than 1000 nM.
Turning to `N#CCn1cc2cc(-c3cn4ccc(NCC(F)(F)F)nc4c(-c4ccc(OC(F)F)cc4)c3=O)ccc2n1` [Example 19, 2-(5-{9-[4-(difluoromethoxy)phenyl]-8-oxo-2-[(2,2,2-trifluoroethyl)amino]pyrido[1,2-a]pyrimidin-7-yl}indazol-2-yl)acetonitrile], at MAT2A enzyme, the IC50 was less than 50 nM.
Turning to `Cn1nc2ccc(-c3cn4ccc(C5CC5)cc4c(-c4ccc5nn(C)c(N)c5c4)c3=O)cc2c1N` [Example 5, 1,3-bis(3-amino-2-methyl-2H-indazol-5-yl)-8-cyclopropylquinolizin-2-one], the IC50 on MAT2A enzyme is more than 1000 nM.
In the case of `COc1ccc(-c2cn3ccc(C4CC4)nc3c(-c3ccc4c(c3)OC(F)(F)O4)c2=O)cc1OC` [Example 33, 2-cyclopropyl-9-(2,2-difluoro-1,3-benzodioxol-5-yl)-7-(3,4-dimethoxyphenyl)-8H-pyrido[1,2-a]pyrimidin-8-one], the IC50 on MAT2A enzyme is more than 1000 nM.
As to `O=c1c(-c2ccc3c(c2)OC(F)(F)O3)cn2ccc(C3CC3)nc2c1-c1ccc2c(c1)OC(F)(F)O2` [Example 30, 2-cyclopropyl-7,9-bis(2,2-difluoro-1,3-benzodioxol-5-yl)-8H-pyrido[1,2-a]pyrimidin-8-one], the IC50 at MAT2A enzyme is more than 1000 nM.
Take `Cn1cc2cc(-c3cn4ccc(C5CC5)nc4c(-c4ccc5nn(C)cc5c4)c3=O)ccc2n1` [Example 29, 2-cyclopropyl-7,9-bis(2-methyl-2H-indazol-5-yl)-8H-pyrido[1,2-a]pyrimidin-8-one]: the IC50 on MAT2A enzyme is more than 1000 nM.
For the compound `O=c1c(-c2ccc(OC(F)F)cc2)cn2c(C3CC3)ccnc2c1-c1ccc(OC(F)F)cc1` [Example 40, 4-cyclopropyl-7,9-bis[4-(difluoromethoxy)phenyl]-8H-pyrido[1,2-a]pyrimidin-8-one], on MAT2A enzyme, the IC50 was more than 1000 nM.
Turning to `O=C1NC2(CC2)Cn2nc3ccc(-c4cn5ccc(C6CC6)nc5c(-c5ccc(OC(F)F)cc5)c4=O)cc3c21` [Example 35, 9′-(2-cyclopropyl-9-(4-(difluoromethoxy)phenyl)-8-oxo-8H-pyrido[1,2-a]pyrimidin-7-yl)-4′H-spiro[cyclopropane-1,3′-pyrazino[1,2-b]indazol]-1′(2′H)-one], the IC50 on MAT2A enzyme was less than 50 nM.
In the case of `O=c1ccn2cc(-c3ccc(OC(F)F)cc3)c(=O)c(-c3ccc(OC(F)F)cc3)c2[nH]1` [Example 21, 7,9-bis[4-(difluoromethoxy)phenyl]-1H-pyrido[1,2-a]pyrimidin-2,8-dione], the IC50 on MAT2A enzyme is more than 1000 nM.
With `COc1ccc(-c2c(Nc3ccccn3)[nH]c3c(C4=CCCCC4)c(-c4ccccc4)nn3c2=O)cc1` [AG-270, reference compound], the “Tumor volume, mean volume” value in assay [1] (day 1 of administration) was 154 mm^3; in assay [1] (day 4 of administration), 189 mm^3; in assay [1] (day 6 of administration), 219 mm^3; in assay [1] (day 8 of administration), 244 mm^3; in assay [1] (day 11 of administration), 303 mm^3; in assay [1] (day 13 of administration), 369 mm^3. Moreover, in assay [1] (day 15 of administration), the “Tumor volume, mean volume” value is given as 419 mm^3.
For the compound `O=c1c(-c2ccc(OC(F)F)cc2)cn2ccc(-c3ccc(OC(F)F)cc3)cc2c1-c1ccc(OC(F)F)cc1` [Example 1, 1,3,8-tris(4-(difluoromethoxy)phenyl)-2H-quinolizin-2-one], the IC50 at MAT2A enzyme is 50 to 200 nM.
As for `O=c1c(-c2ccc(OC(F)F)cc2)cn2ccc(Cl)cc2c1-c1ccc(OC(F)F)cc1` [Example 2, 8-chloro-1,3-bis(4-(difluoromethoxy)phenyl)-2H-quinolizin-2-one], the IC50 at MAT2A enzyme is less than 50 nM.
Consider `COc1cc(-c2cn3ccc(C4CC4)nc3c(-c3ccc(OC(F)F)c(OC)c3)c2=O)ccc1OC(F)F` [Example 37, 2-cyclopropyl-7,9-bis(4-(difluoromethoxy)-3-methoxyphenyl)-8H-pyrido[1,2-a]pyrimidin-8-one], for which the IC50 on MAT2A enzyme lay within 50 to 200 nM.
Consider `Nc1nc2ccc(-c3cn4ccc(NCC(F)(F)F)nc4c(-c4ccc(OC(F)F)cc4)c3=O)cc2s1` [Example 18], for which, at MAT2A enzyme, the IC50 was less than 50 nM.
On to `COc1ccc(-c2cn3ccc(C4CC4)nc3c(-c3ccc(OC)c(OC)c3)c2=O)cc1OC` [Example 31, 2-cyclopropyl-7,9-bis(3,4-dimethoxyphenyl)-8H-pyrido[1,2-a]pyrimidin-8-one], for which the IC50 on MAT2A enzyme was more than 1000 nM.
For the compound `O=C1NC2(CC2)Cn2nc3ccc(-c4cn5ccc(NCC(F)(F)F)nc5c(-c5ccc(OC(F)F)cc5)c4=O)cc3c21` [Example 14, 9′-{9-[4-(difluoromethoxy)phenyl]-8-oxo-2-[(2,2,2-trifluoroethyl)amino]pyrido[1,2-a]pyrimidin-7-yl}-2′,4′-dihydrospiro[cyclopropane-1,3′-pyrazino[1,2-b]indazol]-1′-one], the IC50 on MAT2A enzyme is less than 50 nM.
